“Also recorded” adds a separate entry of the source. Peptide text beside a SMILES is read from it.
Assays:
[1] = test system: G-CSF, IL-2, SCF, VEGF, CX3CL1, IGFBP5, IGFBP6, IL-1α, IL-1β, IL-6, IL-9, MCP-1, MIP-3α, IL12p40/70, MIG, TNF-α, and VCAM-1; assay: Cytokine array (Mouse cytokine array C3) of LPS-treated RAW 264.7 macrophage cells; assay type: cell-based; details: 100 nM for 30 minutes, LPS two hours, densitometer
Method: First, RAW 264.7 macrophage cells were purchased from American Type Culture Collection (ATCC; Manassas, Va.), and were culture at a temperature of 37° C., under 5% CO2 atmosphere, using 10% Fetal Bovine Serum (FBS) and Dulbecco's Modified Eagle's Medium (DMEM) containing 1% penicillin/streptomycin.
In addition, RAW 264.7 macrophage cells cultured as described above were also divided into a 6-well plate, after 24 hours, were pretreated with 100 nM of compound 1.1 (SEQ ID NO: 2) for 30 minutes, and further treated with LPS for two hours. The above cell culture was collected and, using a cytokine array (Mouse cytokine array C3, RayBiotech), changes in amounts of cytokine and chemokine were quantified by a densitometer. The cytokines and chemokines detected by the compound of the present invention included G-CSF, IL-2, SCF, VEGF, CX3CL1, IGFBP5, IGFBP6, IL-1α, IL-1β, IL-6, IL-9, MCP-1, MIP-3α, IL12p40/70, MIG, TNF-α, and VCAM-1.

NF-κB = assay: 5×NF-κB-Luc reporter luciferase assay in LPS-treated RAW 264.7 cells; assay type: cell-based; details: 100 nM for 30 minutes, LPS 100 ng/ml two hours
Method: Specifically, 5×NF-κB-Luc reporter plasmid was transfected into RAW 264.7 cells using Effectene (Qiagen, USA). The transfected cells were pretreated with 100 nM of compound 1.1 (SEQ ID NO: 2) for 30 minutes, and further treated with LPS (100 ng/ml) for two hours, and luciferase activity in the cells was measured (FIG. 4 depicts a graph showing relative inhibition activities of compound 1.1 (SEQ ID NO: 2) and compound 1.2 to NF-κB activation). When the cells were treated with compound 1.1 (SEQ ID NO: 2) and compound 1.2 according to the present invention, activation of NF-κB, which was induced by LPS, was inhibited (FIG. 4).
In addition, 5×NF-κB-Luc reporter plasmid was transfected into RAW 264.7 macrophage cells and treated with compounds of the present invention, as described above. After 24 hours of the transfection, the cells were pretreated with DMSO (control), compound 1.1 (SEQ ID NO: 2), reference compound 1 (SEQ ID NO: 16) (compound where palmitic acid is removed from compound 1.1 (SEQ ID NO: 2)), and smaducin-6 were treated at various concentrations of 100 pM, 1 nM, and 100 nM for 30 minutes, and then the cells were treated with 100 ng/ml of LPS for two hours.
Specifically, 5×NF-κB-Luc reporter plasmid, SBE-Luc reporter plasmid, and BRE-Luc reporter plasmid were individually transfected into Raw 264.7 macrophage cells. After 24 hours, the cells transfected with the NF-κB-Luc reporter plasmid were treated with 100 ng/mL of LPS, the cells transfected with the SBE-Luc reporter plasmid were treated with 5 ng/mL of TFG-β1, and the cells transfected with the BRE-Luc reporter plasmid were treated with 100 ng/mL of BMP6 for two hours.
As described in Example 2.3, 5×NF-κB-Luc reporter plasmid was transfected into RAW 246.7 macrophage cells. After 24 hours, the cells transfected with NF-κB-Luc reporter plasmid were pretreated with compound 1.1 (SEQ ID NO: 2) (100 nM), interleukin-1-receptor-associated-kinase-1/4 inhibitor (IRAK1/4) inhibitor (25 μM, CAS 509093-47-4), and smaducin-6 (100 nM) for 30 minutes, and then further treated with LPS (100 ng/ml) for 2 hours. Subsequently, luciferase activities in the cells were measured.

[2] = Plasma concentration / pharmacokinetics after intravenous and oral administration; assay type: in vivo, Male SD rat
Method: Compound 1.1 (SEQ ID NO: 2) was administered to a rat intravenously (I.V., 5 mg/kg) or orally (50 mg/kg), and 24 hours after administration, the concentration of compound 1.1 (SEQ ID NO: 2) in plasma was measured (FIG. 18 and FIG. 19).

AP-1 = assay: AP-1-Luc reporter luciferase assay in LPS-treated RAW 246.7 cells; assay type: cell-based; details: 100 nM for 30 minutes, LPS 100 ng/ml 2 hours
Method: RAW 246.7 macrophage cells were transfected with AP-1-Luc reporter plasmid as described in Example 2.3. After 24 hours, the transfected cells with AP-1-Luc reporter plasmid were pretreated with compound 1.1 (SEQ ID NO: 2) (100 nM), IRAK1/4 inhibitor (25 μM), and smaducin-6 (100 nM) for 30 minutes, and then further treated with LPS (100 ng/ml) for 2 hours.

[3] = test system: STZ-induced diabetic retinopathy; assay: Active oxygen in retina of STZ-induced diabetic retinopathy model; assay type: in vivo; details: mice; 0.2 μg into one eye, three times; vs non-treated DR sample
Method: Streptozotocin (STZ) was administered at dose of 50 mg/kg to mice daily for 5 days, and a mouse model having induced diabetic retinopathy was obtained. The experimental group of the mouse model was injected with compound 1.1 (SEQ ID NO: 2), in an amount of 0.2 μg into one eye of the mouse, from the 20th day to 24th days from the administration, three times with two days of interval. After 50 days of administration, a DR sample that was not treated with compound 1.1 (SEQ ID NO: 2) and a DR sample treated with compound 1.1 (SEQ ID NO: 2) were collected.
The collected retina tissues from each mouse group as described above were stained with 5 μM of dihydroethidium and active oxygen rates from each group were measured (FIG. 27B). […] Accordingly, compound 1.1 (SEQ ID NO: 2) of the present invention is effectively used for preventing, alleviating or treating ophthalmic indications such as diabetic retinopathy from the biological experiments using mice.

[4] = test system: experimental autoimmune encephalomyelitis; assay: MOG-induced experimental autoimmune encephalomyelitis model; assay type: in vivo; details: EAE mice
Method: To confirm the effect of compound 1.1 (SEQ ID NO: 2) on multiple sclerosis, mice (10 weeks old, female) were sensitized with MOG35-55/[…] and PTX and an experimental autoimmune encephalomyelitis mouse model was obtained. Experimental methods were described in Oncotarget, Vol. 7 (2016), No. 13, 15382-15393, which is incorporated herein by reference.
As reference group, 10000 unit of Interferon-beta was hypodermically injected for 25 days, once every other day. Clinical score were measured and presented.

[5] = plasma, iv, Male SD rat, single dose 5 mg/kg (i.v.)

CCCCCCCCCCCCCCCC(=O)N1CCC[C@H]1C(=O)N1CCC[C@H]1C(=O)NCC(=O)N[C@@H](Cc1ccc(O)cc1)C(=O)O [compound 1.1, (S)-3-(4-hydroxyphenyl)-2-(2-((S)-1-((S)-1-palmitoylpyrrolidine-2-carbonyl)pyrrolidine-2-carboxamido)acetamido)propanoic acid] (HELM PEPTIDE1{[CCCCCCCCCCCCCCCC(=O)[*:2]].P.P.G.Y}$$$$V2.0)
expression of cytokines and chemokines induced by LPS (G-CSF, IL-2, SCF, VEGF, CX3CL1, IGFBP5, IGFBP6, IL-1α, IL-1β, IL-6, IL-9, MCP-1, MIP-3α, IL12p40/70, MIG, TNF-α, VCAM-1) [1]: suppressed as statistically meaningful
inhibition of the activity of NF-κB induced by LPS, dose dependence (NF-κB; 100 pM, 1 nM): increased as dose of compound 1.1 (SEQ ID NO: 2) increased
activation of NF-κB induced by LPS (luciferase activity) (NF-κB): inhibited
AUC(0-t) [2, 5]: 2140 ng·h/mL
Cmax [2, 5]: 6020 ng/mL
Tmax [2, 5]: 4.8 min
clearance [2, 5]: 45 mL/min/kg
Vd ([2]; plasma, iv, Male SD rat, single dose 5 mg/kg (i.v.), read-out: Vss): 5.4 ± 1 L/kg
Tmax ([2]; plasma, po, Male SD rat, single dose 50 mg/kg (p.o.)): 0 min
time within which the concentration decreased to 1/100 of the initial concentration ([2]; rat, intravenous 5 mg/kg): 1 to 2 h
concentration detected in blood ([2]; rat, intravenous 5 mg/kg, within 8 hours from the administration): very low concentration
detection in blood ([2]; rat, oral 50 mg/kg, after 30 minutes from the oral administration): not detected
AP-1-Luc luciferase activity (MAPK signaling pathway) (AP-1): did not suppress MAPK signaling pathways
active oxygen rate in retina tissues (dihydroethidium) [3]: reduced active oxygen rate
changes in body weights ([4]; compared to the EAE disease model group): did not have reduced weight
clinical score / treatment effect ([4]; hypodermic 1 mg/kg and 40 mg/kg every other day for 25 days, vs interferon-beta 10000 unit): effective in the treatment for multiple sclerosis; also recorded: the same or greater treatment effect and safety
